Key:
[1] = test system: mice fed a high-fat diet; assay: Diet-induced obesity in mice; assay type: in vivo; conditions: high-fat diet days 0 to 4, 10 mg/kg by gavage once daily for four days, versus vehicle control
Procedure: Lean mice (male, approx. 5 weeks of age, purchased from The Jackson Laboratory, Bar Harbor, Me.) were maintained in individual cages at 22° C. on a 12:12 hr light/dark cycle. The “treated” mice (N=12) were administered a Thiazole Derivative (10 mg/kg) by gavage once daily for four consecutive days. Control mice (N=12) were administered vehicle only, once daily for four days. Both control and treated mice were fed a high-fat diet from days 0 to 4 and body weight and food intake was monitored daily. The percent inhibition for weight gain and food intake was calculated by comparing the increase in weight gain and food intake in the treated mice to the increase in weight gain and food intake in the control mice.

[2] = target: T1, recombinant human H3 receptor, expressed in HEK-293 cells (Homo sapiens, UniProt Q9Y5N1); assay: H3-receptor binding assay, recombinant human receptor; conditions: recombinant human receptor in HEK-293 membranes; 3 nM [3H]R-α-methyl histamine or [3H]Nα-methyl histamine, 30° C., 30 min
T1 construct: expressed in transfected cells; host or cells: HEK-293 (human embryonic kidney) cells
Procedure: (§1) The source of the H3 receptors in this experiment was guinea pig brain. Alternatively, the source of H3 receptors was recombinant human receptor, expressed in HEK-293 (human embryonic kidney) cells.
(§2) All compounds to be tested were dissolved in DMSO and then diluted into the binding buffer (50 mM Tris, pH 7.5) such that the final concentration was 2 μg/ml with 0.1% DMSO. Membranes were then added (400 μg of protein, 5 μg in the case of recombinant human receptor) to the reaction tubes. The reaction was started by the addition of 3 nM [^3H]R-α-methyl histamine (8.8 Ci/mmol) or 3 nM [^3H]N^α-methyl histamine (80 Ci/mmol) and continued under incubation at 30° C. for 30 min. Bound ligand was separated from unbound ligand by filtration, and the amount of radioactive ligand bound to the membranes was quantitated by liquid scintillation spectrometry. All incubations were performed in duplicate and the standard error was always less than 10%. Compounds that inhibited more than 70% of the specific binding of radioactive ligand to the receptor were serially diluted to determine a Ki (nM).

[3] = target: T2, H3 receptors, guinea pig brain (Cavia porcellus, UniProt Q9JI35); assay: H3-receptor binding assay, guinea pig brain; conditions: guinea pig brain membranes; 3 nM [3H]R-α-methyl histamine or [3H]Nα-methyl histamine, 30° C., 30 min
T2 construct: The source of the H3 receptors in this experiment was guinea pig brain; from tissue; host or cells: guinea pig brain membranes
Procedure: as §1
The animals weighed 400-600 g. The brain tissue was homogenized with a solution of 50 mM Tris, pH 7.5. The final concentration of tissue in the homogenization buffer was 10% w/v. The homogenates were centrifuged at 1,000×g for 10 min. in order to remove clumps of tissue and debris. The resulting supernatants were then centrifuged at 50,000×g for 20 min. in order to sediment the membranes, which were next washed three times in homogenization buffer (50,000×g for 20 min. each). The membranes were frozen and stored at −70° C. until needed.
as §2, with “All incubations were performed in duplicate and the standard error was always less than 10%. Compounds that inhibited more than 70% of the specific binding of radioactive ligand to the receptor were serially diluted to determine a Ki (nM).” left out

T1 sequence (Q9Y5N1 whole entry): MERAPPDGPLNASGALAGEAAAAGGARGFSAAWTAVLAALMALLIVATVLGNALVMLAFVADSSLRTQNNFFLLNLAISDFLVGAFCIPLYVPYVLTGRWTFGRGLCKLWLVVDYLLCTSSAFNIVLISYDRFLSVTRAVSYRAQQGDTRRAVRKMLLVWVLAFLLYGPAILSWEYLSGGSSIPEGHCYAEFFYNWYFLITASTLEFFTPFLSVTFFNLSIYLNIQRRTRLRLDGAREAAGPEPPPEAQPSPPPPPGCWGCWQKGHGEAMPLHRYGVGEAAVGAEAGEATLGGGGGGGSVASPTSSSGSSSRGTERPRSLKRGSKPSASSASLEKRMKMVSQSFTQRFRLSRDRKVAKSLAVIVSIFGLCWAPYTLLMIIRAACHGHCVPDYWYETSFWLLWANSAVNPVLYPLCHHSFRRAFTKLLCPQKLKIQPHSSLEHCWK
T2 sequence (Q9JI35 whole entry): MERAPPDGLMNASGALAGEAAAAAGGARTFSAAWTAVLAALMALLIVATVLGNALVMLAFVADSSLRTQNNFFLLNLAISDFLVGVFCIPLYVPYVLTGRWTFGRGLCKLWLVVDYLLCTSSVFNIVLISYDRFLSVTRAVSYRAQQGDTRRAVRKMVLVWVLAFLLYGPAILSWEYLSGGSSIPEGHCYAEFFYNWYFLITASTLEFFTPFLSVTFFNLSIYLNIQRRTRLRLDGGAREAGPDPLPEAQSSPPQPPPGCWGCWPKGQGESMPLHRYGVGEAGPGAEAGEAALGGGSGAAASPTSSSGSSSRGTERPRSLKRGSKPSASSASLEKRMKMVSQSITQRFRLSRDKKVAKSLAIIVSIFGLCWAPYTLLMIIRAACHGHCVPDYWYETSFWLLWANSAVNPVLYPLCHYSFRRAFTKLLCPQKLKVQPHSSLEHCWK

| Ki [2] [nM] | Ki [3] [nM] | Structure (SMILES) | Food intake Inhibition (%) [1] [%] | Weight Gain Inhibition (%) [1] [%] |
| --- | --- | --- | --- | --- |
| – | – | Nc1cc(CN2CCC(Oc3ccc(-n4c(-c5ccccn5)nc5cccnc54)cc3)CC2)ccn1 [Compound 4A] | 15.9 | 74.1 |
| – | – | CN1CCN(c2ccc(OC3CCN(Cc4ccnc(N)c4)CC3)cc2)CC1 [Compound 22A] | 11.2 | 42.4 |
| – | – | Nc1cc(CN2CCC(Oc3ccc(-n4c(C(F)(F)C(F)(F)F)nc5cccnc54)cc3)CC2)ccn1 [Compound 36A] | 12.7 | 58.0 |
| 0.6 | 18 | Nc1cc(CN2CCC(Oc3ccc(-n4c(-c5ncccc5F)nc5cccnc54)cc3)CC2)ccn1 [Compound 69A] | – | – |
